Results reported in the supplement of paper PMC8837787.

System: Saccharomyces cerevisiae ABC16-Green Monster
Assay: growth inhibition at single dose (up to 150 µM), below the 70% cut-off for dose-response; higher = more potent
Conditions: 18 h; 30 °C; YPD
Procedure, shortened: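 Drug-sensitive S. cerevisiae ABC16-Green Monster cells were grown overnight in YPD at 30 °C and diluted to log phase (OD600 0.1–0.2). Each library compound was added at one dose of 150 µM to 200 µl culture per well in 96-well plates, in biological duplicates, with untreated cultures alongside. OD600 was read at 0 h and after 18 h at 30 °C. The value is percent growth inhibition; compounds below 70% in both replicates were not taken to dose-response.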

Structure (SMILES)	growth inhibition at single dose [%]
CN(Cc1c(F)cccc1Cl)C(=O)COc1ccc2[nH]c3ccccc3c(=O)c2c1	< 70
CCc1nn(C)c(C(=O)NCc2ccc(Oc3ccc(C)cc3)cc2)c1Cl	< 70
CC(C)(C)c1ccc(NC(=O)c2cnccn2)cc1	< 70
CCCCS(=O)(=O)Nc1ccc2cnn(C)c2c1	< 70
CC(C)(C)c1cnc(NC(=O)c2ccccc2O)s1	< 70
COc1ccc2nc(C)cc(Nc3ccccc3O)c2c1	< 70
Nc1nnc(SCc2c(F)cccc2Cl)[nH]1	< 70
CCCn1nnc(NC(=O)COc2ccc(C3CCCCC3)cc2)n1	< 70
COc1ccc(C2NCCc3c2[nH]c2ccccc32)cc1CN1CCN(c2ccc(F)cc2)CC1 (centres undefined)	< 70
CC(C)CNC(=O)c1c(N)n(CCc2ccccc2F)c2nc3ccccc3nc12	< 70
COc1ccccc1C(=O)ON=C(N)Cc1cccc2ccccc12	< 70
Cc1ccc(CSCc2ccc(C(=O)NC3CC3)o2)cc1	< 70
COc1ccc(C2N(C)c3ccccc3N2C)cc1	< 70
Oc1ccccc1CN1CCN(C(c2ccccc2)c2ccccc2)CC1	< 70
CN1CCCN(C(c2ccccc2)c2ccc(Cl)cc2)CC1 (centres undefined)	< 70
C=CCn1c(C)cc(C(=O)COC(=O)C(O)(c2ccccc2)c2ccccc2)c1C	< 70
CCOC(=O)N1CCC(N/C=C(\C#N)S(=O)(=O)c2ccc(Cl)cc2)CC1	< 70
Cn1c(C(=O)c2cccc3ccccc23)nc2ccccc21	< 70
COc1ccc(C2C(C(=O)Nc3cccc(OC)c3)c3ccccc3C(=O)N2C2CCCCC2)cc1 (centres undefined)	< 70
Cc1cc(NC(=O)C2c3ccccc3C(=O)N(CC(C)C)C2c2cccs2)no1 (centres undefined)	< 70
CC1CC(NC(=O)c2cc3c(=O)n4ccccc4nc3n2C)CC(C)(C)C1 (centres undefined)	< 70

Structure (SMILES)	growth inhibition at single dose [%]
Cc1[nH]c(-c2ccc(F)cc2)cc1C(=O)NC1CCN(Cc2ccccc2)CC1	< 70
CC(C)(C)C(=O)Nc1ccc(C(=O)Nc2cccc(-c3nc4ccccc4[nH]3)c2)cc1	< 70
O=C(Nc1ccc2nc(-c3ccccc3Cl)[nH]c2c1)c1ccc(=O)[nH]n1	< 70
CCOC(=O)c1cnc2c(C)cc(C)cc2c1Nc1ccc(OC)c(OC)c1	< 70
CCN(Cc1ccccc1)C1CCN(Cc2cc(Br)ccc2O)CC1	< 70
CCCS(=O)(=O)N1CCC(CO)(Cc2ccccc2C(F)(F)F)CC1	< 70
Cc1cc(N(C)C)nc(Nc2ccc(NC(=O)Nc3ccccc3)cc2)n1	< 70
COc1ccc(-c2cnc3ccc(NCc4ccc(S(N)(=O)=O)cc4)nn23)cn1	< 70
Cc1ccc(Nc2nc(-c3ccccn3)cs2)cc1	< 70
Cc1nn(C)c(C)c1NS(=O)(=O)c1c(Cl)cc(-c2ccnc(N3CCNCC3)c2)cc1Cl	< 70
CCN(CC)C(=O)N1CCN(C)CC1	< 70
COc1cc(C(=O)Nc2ccc(-c3nc4ccccc4[nH]3)cc2)cc(OC)c1OC	< 70
O=C(OCc1ccccc1)N1CCC(c2cc(-c3ccncc3)c(-c3ccc(F)cc3)[nH]2)CC1	< 70
c1ccc(Oc2ccc(-c3cncc(-c4ccc5[nH]ccc5c4)n3)cc2)cc1	< 70
CC1CCCCN1CCCNC(=O)c1ccc2c(c1)sc1nc(-c3ccc(F)cc3)cn12 (centres undefined)	< 70
c1ccc(SCc2ccc(-c3nc4ccccc4s3)cc2)nc1	< 70
Cn1ncc2c(N3CCN(CC(=O)Nc4nc(-c5c[nH]c6ccccc56)cs4)CC3)ncnc21	< 70
COc1ccc2cc(CNc3ncnc4n[nH]cc34)ccc2c1	< 70
CCOc1ccc(CN(C)CC(=O)NCCc2ccc(S(N)(=O)=O)cc2)cc1	< 70
O=C(N/N=C/c1ccc(O)cc1O)c1ccc[n+]([O-])c1	< 70
COC(=O)c1cc(C(=O)OC)cc(-n2c(C)cc(C(=O)Cn3ncc(Cl)c(Cl)c3=O)c2C)c1	< 70

Structure (SMILES)	growth inhibition at single dose [%]
O=c1ccc(-c2nc3c4c5c(sc4ncn3n2)CCCCC5)n[nH]1	< 70
CC(C)(C)c1ccc(C(=O)Nc2c3c(nn2-c2cccc(Cl)c2)CSC3)cc1	< 70
O=C(Cn1ncc(Cl)c(Cl)c1=O)NCC(=O)Nc1ccc(F)c(F)c1F	< 70
CC(C)(C)c1ccc(C(=O)Nc2ncccc2O)cc1	< 70
N=c1n(CCN2CCCCC2)c2ccccc2n1CC(O)c1cccc(Br)c1 (centres undefined)	< 70
CC(C(=O)Nc1ccc2oc(-c3ccncc3)nc2c1)c1ccccc1 (centres undefined)	< 70
CN1CCN(c2cc(-c3ccc(F)cc3)nc(-c3ccncc3)n2)CC1	< 70
CCOc1cc(CNC(C)C(O)c2ccccc2)cc(Cl)c1OCC (centres undefined)	< 70
CC(=O)Oc1ccccc1C(=O)Nc1ncc([N+](=O)[O-])s1	< 70
CCN(CC)CCCNc1nc(-c2ccc(Cl)cc2)nc2ccccc12	< 70
CC(=O)c1c(C)[nH]c(C(=O)OCCOc2ccccc2)c1C	< 70
CC(=O)NC[C@H]1CN(c2ccc(N3CCSCC3)c(F)c2)C(=O)O1	< 70
COc1ccc(C(=O)Nc2nonc2-c2ccc(OC)c(OC)c2)cc1Cl	< 70
O=C(CCl)NCCOc1ccc(Cl)cc1Cl	< 70
CCCCN(CCCC)S(=O)(=O)c1ccc(NC(=O)c2ccco2)cc1	< 70
COc1ccc(C(=O)NC(c2ccc(Cl)cc2Cl)c2cc(Cl)c3cccnc3c2O)cc1 (centres undefined)	< 70
Nc1nccnc1C(=O)Nc1nc2cc3c(cc2s1)OCCO3	< 70
COc1cc2cc(C(=O)Nc3ccccc3)c(N)nc2cc1OC	< 70
Cc1ccccc1-n1nnc(C(=O)Nc2cccc(Br)c2)c1N	< 70
Cc1ccsc1C(=O)Nc1ccc(N2CCN(C)CC2)cn1	< 70
CCN(CC)c1cc(C)c2cc(NC(=O)c3cccc(OC)c3)ccc2n1	< 70

Structure (SMILES)	growth inhibition at single dose [%]
COc1ccc(CN2CCOc3ccc(C(C)(O)CN(C)C)cc3C2)cc1C (centres undefined)	< 70
CC(C)c1ccc2cc(C(=O)Nc3ccc4c(c3)NC(=O)CO4)[nH]c2c1	< 70
Nc1nccnc1C(=O)Nc1ccc(C23CC4CC(CC(C4)C2)C3)cc1	< 70
CC1=Nc2ccc(Cl)cc2C(c2ccccc2)N1CCNC(=O)CN(C)C (centres undefined)	< 70
COc1ccc(CCNc2ncnc3sc(C)cc23)cc1OC	< 70
COc1ccc(-c2cc(=O)oc3c4c(ccc23)OCN(Cc2ccc(F)cc2)C4)cc1	< 70
Nc1nc(N)c2c3c(sc2n1)CN(Cc1ccccc1)CC3	< 70
c1ccc2c(NCCc3c[nH]c4ccccc34)c3ccccc3nc2c1	< 70
O=C(Nc1ccc(Br)cc1)Nc1cccc(Cl)c1	< 70
CC(Oc1ccccc1)C(=O)Nc1nc(-c2ccccn2)cs1 (centres undefined)	< 70
CC(C)(C)c1ccc(C2CC3=Nc4ccccc4N(C(=O)c4ccccc4Cl)C(c4ccc(F)cc4)C3=C(O)C2)cc1 (centres undefined)	< 70
O=c1nc(CCc2ccc3c(c2)OCCO3)[nH]c2ccccc12	< 70
CC(Nc1ncnc2sccc12)c1ccc(-n2cncn2)cc1 (centres undefined)	< 70
CCOC(=O)c1cn(CC)c2cc(N(C)CCc3ccc(OC)c(OC)c3)c(F)cc2c1=O	< 70
Cc1cccc(N2CCN(C(=O)c3ccc4[nH]c(C)c(C)c4c3)CC2)c1C	< 70
Cc1cc(Nc2ccc(C)c(Cl)c2)n2nc(C(F)(F)F)nc2n1	< 70
Cc1cnc(N2CCN[C@@H](Cc3ccccc3)C2)nc1Oc1ccc(-n2ccnc2)cc1	< 70
N#Cc1ccc(CN2CCCN(c3ncnc4sccc34)CC2)cc1	< 70
N=c1c2ccccc2nnn1-c1cccc(C(F)(F)F)c1	< 70
O=C(C1CCN(c2nnc(-n3cccc3)s2)CC1)N1CCC(Cc2ccccc2)CC1	< 70
CNc1snc(C)c1C(=O)OCCOc1ccccc1C(C)=O	< 70
